Read-outs that look alike come from different tables or passages of the source.
Assays:
wild mustard (SINAR) = test: Postemergence greenhouse trial, % visual injury on wild mustard; type: in vivo, Sinapis arvensis; conditions: Brassica, post-emergence, read-out: % visual injury, Ob
How it was run: (§1)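 Herbicide rates g ae/ha, safener (cloquintocet-mexyl) rates g ai/ha; spray carrier 1.5% v/v crop oil concentrate, 187 L/ha, 2nd–3rd leaf stage. Rating: visual % injury at 20-22 d.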

lambsquarters (CHEAL) = test: Postemergence greenhouse trial, % visual injury on lambsquarters; type: in vivo, Chenopodium album; conditions: Chenopodium album, post-emergence, read-out: % visual injury, Ob
How it was run: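 Visual injury, 0 (none) to 100 (complete kill), rated 20-22 d after overhead track-sprayer application at 187 L/ha; Colby's equation gave expected mixture responses. Herbicide (g ae/ha) and cloquintocet-mexyl safener (g ai/ha) diluted in aqueous 1.5% v/v Agri-dex, applied to weeds at 2–3 true leaves.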

kochia (KCHSC) = test: Postemergence greenhouse trial, % visual injury on kochia; type: in vivo, Kochia scoparia; conditions: Bassia scoparia, post-emergence, read-out: % visual injury, Ob
How it was run: as §1

spring barley (HORVS) = test: Postemergence greenhouse trial, % visual injury on spring barley; type: in vivo, Hordeum vulgare
How it was run: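 Greenhouse crops at second to third true leaf stage sprayed postemergence at 187 L/ha with herbicide (g ae/ha) plus safener (g ai/ha) in acetone/DMSO diluted into 1.5% v/v Agri-dex. Injury scored visually versus solvent-blank controls after 20-22 d, 0 (none) to 100% (complete kill); expected mixture effects by Colby's equation.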

pigweed (AMARE) = test: Postemergence greenhouse trial, % visual injury on pigweed; type: in vivo, Amaranthus retroflexus
How it was run: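 Injury was scored visually (0 = none, 100 = complete kill) 20–22 d after track-sprayer application at 187 L/ha, compared with solvent-sprayed controls. Test plants at the 2–3 true leaf stage; herbicide (g ae/ha) plus cloquintocet-mexyl safener (g ai/ha) in crop-oil-containing spray; expected mixture response by Colby.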

Compound: Nc1c(F)c(-c2ccc3cc[nH]c3c2F)nc(C(=O)O)c1Cl [compound 1]
- pest or weed control at 4.375 g/ha (wild mustard (SINAR); alone): 85%
- pest or weed control at 8.75 g/ha (wild mustard (SINAR); alone, 8.75 g/ha): 88%
- pest or weed control at 17.5 g/ha (wild mustard (SINAR); alone, 17.5 g/ha): 98%
- pest or weed control at 35 g/ha (wild mustard (SINAR); alone, 35 g/ha): 99%
- pest or weed control at 70 g/ha (wild mustard (SINAR); alone, 70 g/ha): 100%
- pest or weed control at 4.375 g/ha (lambsquarters (CHEAL); alone): 86%
- pest or weed control at 8.75 g/ha (lambsquarters (CHEAL); alone, 8.75 g/ha): 95%
- pest or weed control at 17.5 g/ha (lambsquarters (CHEAL); alone, 17.5 g/ha): 99%
- pest or weed control at 35 g/ha (lambsquarters (CHEAL); alone, 35 g/ha): 100%
- pest or weed control at 70 g/ha (lambsquarters (CHEAL); alone, 70 g/ha): 100%
- pest or weed control at 4.375 g/ha (kochia (KCHSC); alone): 67%
- pest or weed control at 8.75 g/ha (kochia (KCHSC); alone, 8.75 g/ha): 72%
- pest or weed control at 17.5 g/ha (kochia (KCHSC); alone, 17.5 g/ha): 93%
- pest or weed control at 35 g/ha (kochia (KCHSC); alone, 35 g/ha): 92%
- pest or weed control at 70 g/ha (kochia (KCHSC); alone, 70 g/ha): 97%
- % visual injury, Ob (spring barley (HORVS); alone, 4.375 g/ha): 13%
- % visual injury, Ob (spring barley (HORVS); alone, 8.75 g/ha): 13%
- % visual injury, Ob (spring barley (HORVS); alone, 17.5 g/ha): 24%
- % visual injury, Ob (spring barley (HORVS); alone, 35 g/ha): 32%
- % visual injury, Ob (spring barley (HORVS); alone, 70 g/ha): 41%
- % visual injury, observed (Ob) (pigweed (AMARE); AMARE, compound 1 alone 20 g/ha): 100%
- % visual injury, observed (Ob) (pigweed (AMARE); AMARE, compound 1 alone 40 g/ha): 100%
- pest or weed control at 4.375 g/ha (pigweed (AMARE); Amaranthus retroflexus, post-emergence, alone, 4.375 g/ha, read-out: % visual injury, Ob): 81%
- pest or weed control at 8.75 g/ha (pigweed (AMARE); Amaranthus retroflexus, post-emergence, alone, 8.75 g/ha, read-out: % visual injury, Ob): 91%
- pest or weed control at 17.5 g/ha (pigweed (AMARE); Amaranthus retroflexus, post-emergence, alone, 17.5 g/ha, read-out: % visual injury, Ob): 99%
- pest or weed control at 35 g/ha (pigweed (AMARE); Amaranthus retroflexus, post-emergence, alone, 35 g/ha, read-out: % visual injury, Ob): 100%
- pest or weed control at 70 g/ha (pigweed (AMARE); Amaranthus retroflexus, post-emergence, alone, 70 g/ha, read-out: % visual injury, Ob): 100%
- % visual injury, Δ (pigweed (AMARE); alone, 35 g/ha): 0%

Compound: Nc1c(F)c(-c2ccc3scnc3c2)nc(C(=O)O)c1Cl [compound 17]
- pest or weed control at 4.375 g/ha (wild mustard (SINAR); SINAR, applied alone): 93%
- pest or weed control at 8.75 g/ha (wild mustard (SINAR); SINAR, 8.75 g/ha, applied alone): 93%
- pest or weed control at 17.5 g/ha (wild mustard (SINAR); SINAR, 17.5 g/ha, applied alone): 95%
- pest or weed control at 35 g/ha (wild mustard (SINAR); SINAR, 35 g/ha, applied alone): 95%
- pest or weed control at 70 g/ha (wild mustard (SINAR); SINAR, 70 g/ha, applied alone): 100%
- pest or weed control at 4.375 g/ha (lambsquarters (CHEAL); CHEAL, applied alone): 40%
- pest or weed control at 8.75 g/ha (lambsquarters (CHEAL); CHEAL, 8.75 g/ha, applied alone): 60%
- pest or weed control at 17.5 g/ha (lambsquarters (CHEAL); CHEAL, 17.5 g/ha, applied alone): 70%
- pest or weed control at 35 g/ha (lambsquarters (CHEAL); CHEAL, 35 g/ha, applied alone): 80%
- pest or weed control at 70 g/ha (lambsquarters (CHEAL); CHEAL, 70 g/ha, applied alone): 85%
- pest or weed control at 4.375 g/ha (kochia (KCHSC); KCHSC, applied alone): 85%
- pest or weed control at 8.75 g/ha (kochia (KCHSC); KCHSC, 8.75 g/ha, applied alone): 90%
- pest or weed control at 17.5 g/ha (kochia (KCHSC); KCHSC, 17.5 g/ha, applied alone): 95%
- pest or weed control at 35 g/ha (kochia (KCHSC); KCHSC, 35 g/ha, applied alone): 100%
- pest or weed control at 70 g/ha (kochia (KCHSC); KCHSC, 70 g/ha, applied alone): 100%
- % visual injury, Ob (spring barley (HORVS); HORVS, 4.375 g/ha, applied alone): 0%
- % visual injury, Ob (spring barley (HORVS); HORVS, 8.75 g/ha, applied alone): 15%
- % visual injury, Ob (spring barley (HORVS); HORVS, 17.5 g/ha, applied alone): 30%
- % visual injury, Ob (spring barley (HORVS); HORVS, 35 g/ha, applied alone): 40%
- % visual injury, Ob (spring barley (HORVS); HORVS, 70 g/ha, applied alone): 45%
- pest or weed control at 17.5 g/ha (pigweed (AMARE); Amaranthus retroflexus, post-emergence, AMARE, 17.5 g/ha, applied alone, read-out: % visual injury, Ob): 100%
- pest or weed control at 35 g/ha (pigweed (AMARE); Amaranthus retroflexus, post-emergence, AMARE, 35 g/ha, applied alone, read-out: % visual injury, Ob): 100%

Compound: CCCCOC(=O)c1nc(-c2ccc3cc[nH]c3c2F)c(F)c(N)c1Cl [compound 9]
- pest or weed control at 4.38 g/ha (wild mustard (SINAR); SINAR, compound 4.380 g/ha, CQC-m 0): 93%
- pest or weed control at 8.75 g/ha (wild mustard (SINAR); SINAR, compound 8.75 g/ha, CQC-m 0): 95%
- pest or weed control at 17.5 g/ha (wild mustard (SINAR); SINAR, compound 17.5 g/ha, CQC-m 0): 95%
- pest or weed control at 35 g/ha (wild mustard (SINAR); SINAR, compound 35 g/ha, CQC-m 0): 100%
- pest or weed control at 70 g/ha (wild mustard (SINAR); SINAR, compound 70 g/ha, CQC-m 0): 100%
- pest or weed control at 4.38 g/ha (lambsquarters (CHEAL); CHEAL, compound 4.380 g/ha, CQC-m 0): 85%
- pest or weed control at 8.75 g/ha (lambsquarters (CHEAL); CHEAL, compound 8.75 g/ha, CQC-m 0): 80%
- pest or weed control at 17.5 g/ha (lambsquarters (CHEAL); CHEAL, compound 17.5 g/ha, CQC-m 0): 95%
- pest or weed control at 35 g/ha (lambsquarters (CHEAL); CHEAL, compound 35 g/ha, CQC-m 0): 100%
- pest or weed control at 70 g/ha (lambsquarters (CHEAL); CHEAL, compound 70 g/ha, CQC-m 0): 100%
- pest or weed control at 4.38 g/ha (kochia (KCHSC); KCHSC, compound 4.380 g/ha, CQC-m 0): 60%
- pest or weed control at 8.75 g/ha (kochia (KCHSC); KCHSC, compound 8.75 g/ha, CQC-m 0): 60%
- pest or weed control at 17.5 g/ha (kochia (KCHSC); KCHSC, compound 17.5 g/ha, CQC-m 0): 85%
- pest or weed control at 35 g/ha (kochia (KCHSC); KCHSC, compound 35 g/ha, CQC-m 0): 100%
- pest or weed control at 70 g/ha (kochia (KCHSC); KCHSC, compound 70 g/ha, CQC-m 0): 100%
- % visual injury, Ob (spring barley (HORVS); HORVS, compound 4.380 g/ha, CQC-m 0): 10%
- % visual injury, Ob (spring barley (HORVS); HORVS, compound 8.75 g/ha, CQC-m 0): 20%
- % visual injury, Ob (spring barley (HORVS); HORVS, compound 17.5 g/ha, CQC-m 0): 30%
- % visual injury, Ob (spring barley (HORVS); HORVS, compound 35 g/ha, CQC-m 0): 40%
- % visual injury, Ob (spring barley (HORVS); HORVS, compound 70 g/ha, CQC-m 0): 50%
- pest or weed control at 4.38 g/ha (pigweed (AMARE); Amaranthus retroflexus, post-emergence, AMARE, compound 4.380 g/ha, CQC-m 0, read-out: % visual injury, Ob): 10%
- pest or weed control at 8.75 g/ha (pigweed (AMARE); Amaranthus retroflexus, post-emergence, AMARE, compound 8.75 g/ha, CQC-m 0, read-out: % visual injury, Ob): 20%
- pest or weed control at 17.5 g/ha (pigweed (AMARE); Amaranthus retroflexus, post-emergence, AMARE, compound 17.5 g/ha, CQC-m 0, read-out: % visual injury, Ob): 50%
- pest or weed control at 70 g/ha (pigweed (AMARE); Amaranthus retroflexus, post-emergence, AMARE, compound 70 g/ha, CQC-m 0, read-out: % visual injury, Ob): 100%

From patent publication US9763445B2, “Safened herbicidal compositions comprising a pyridine carboxylic acid herbicide” (Dow AgroSciences, LLC, priority 2014, dated 2017)
